Where a name gives a salt, the structure may show the parent alone.

For one assay, the target named is T1, Farnesyltransferase (FTase) (Bos taurus, UniProt P29702+P49355).
T1 construct: precipitation from a beef brain homogenate; from tissue; host or cells: bovine brain
T1 sequence (P49355 whole entry, one chain of several): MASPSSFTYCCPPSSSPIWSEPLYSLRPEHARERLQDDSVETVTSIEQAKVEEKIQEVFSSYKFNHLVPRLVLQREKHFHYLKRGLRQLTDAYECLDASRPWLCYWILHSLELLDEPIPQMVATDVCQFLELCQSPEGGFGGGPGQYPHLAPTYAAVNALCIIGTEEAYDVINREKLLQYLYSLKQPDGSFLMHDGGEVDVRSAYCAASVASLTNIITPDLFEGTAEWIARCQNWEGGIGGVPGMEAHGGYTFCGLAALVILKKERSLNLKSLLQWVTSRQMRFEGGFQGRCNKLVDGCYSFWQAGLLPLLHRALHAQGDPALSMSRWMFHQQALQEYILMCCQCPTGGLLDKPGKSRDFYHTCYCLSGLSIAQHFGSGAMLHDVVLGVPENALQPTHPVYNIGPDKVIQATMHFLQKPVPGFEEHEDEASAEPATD
Nature of the assay: Farnesyltransferase inhibition (scintillation proximity assay, [3H]-FPP / biotin-K-ras peptide).
Conditions: not given
Type of assay: biochemical, bovine. In outline: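 Bovine brain FTase, partially purified by 30–50% saturated ammonium sulfate precipitation and DEAE Sepharose chromatography, separated from GGTase I/II. Scintillation proximity read-out of [3H]-FPP transfer to biotin-K-ras peptide, counted 1 h after quench. Compounds added from ethanol with 10-fold dilution into assay.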
In general, % Inhibition refers to the relative decrease from the control value, in per cent. Lower therefore signals a weak effect. Take `Cc1ccccc1COC(c1ccc(C#N)c(-c2ccccc2C)c1)c1cncn1C.Cl` (centres unmarked) [Example 135]: the “% Inhibition at 10^−6M” value came out at 94%.

Consider `Cc1ccccc1-c1cc(C(OCc2ccc(C(F)(F)F)cc2)c2cncn2C)ccc1C#N.Cl` (centres unmarked) [Example 139], for which the “% Inhibition at 10^−6M” value was 97%.

Take `Cc1ccccc1-c1cc(C(OCc2ccccc2[N+](=O)[O-])c2cncn2C)ccc1C#N.Cl` (centres unmarked) [Example 142]: the “% Inhibition at 10^−6M” value is listed as 94%.

With `Cc1ccccc1-c1cc(C(OCc2cccc(OC(F)(F)F)c2)c2cncn2C)ccc1C#N.Cl` (centres unmarked) [Example 143], the “% Inhibition at 10^−6M” value stood at 97%.

Turning to `COc1cc(COC(c2ccc(C#N)c(-c3ccccc3C)c2)c2cncn2C)cc(OC)c1OC.Cl` (centres unmarked) [Example 148], the “% Inhibition at 10^−6M” value stood at 95%.

Take `Cc1ccccc1-c1cc(C(OCc2cccc3cccnc23)c2cncn2C)ccc1C#N.Cl` (centres unmarked) [Example 149]: the “% Inhibition at 10^−6M” value is 93%.

Turning to `Cc1ccccc1-c1cc(C(OCc2ccc(S(C)(=O)=O)cc2)c2cncn2C)ccc1C#N.Cl` (centres unmarked) [Example 151], the “% Inhibition at 10^−6M” value came out at 94%.

The assay is the same for the next values; noted with them: compound at 10^−6 M; bovine FTase, 37° C., 30 minutes.
As usually defined, the inhibition is the drop in the measured response relative to a control, in per cent. Read a low inhibition as a response near the control. Consider `COc1cccc(COC(c2ccc(C#N)c(-c3ccccc3C)c2)c2cncn2C)c1` (centres unmarked) [Example 134, 5-(((3-methoxybenzyl)oxy)(1-methyl-1H-imidazol-5-yl)methyl)-2′-methyl(1,1′-biphenyl)-2-carbonitrile hydrochloride], for which at 1 µM the inhibition was 93%.

`Cc1ccccc1-c1cc(C(OCc2cccc(F)c2)c2cncn2C)ccc1C#N` (centres unmarked) [Example 136, 5-(((3-fluorobenzyl)oxy)(1-methyl-1H-imidazol-5-yl)methyl)-2′-methyl(1,1′-biphenyl)-2-carbonitrile hydrochloride] yielded an inhibition at 1 µM of 95%.

For `Cc1ccccc1-c1cc(C(OCc2cc(Cl)nc(Cl)c2)c2cncn2C)ccc1C#N` (centres unmarked) [Example 137, 5-(((2,6-dichloro-4-pyridinyl)methoxy)(1-methyl-1H-imidazol-5-yl)methyl)-2′-methyl(1,1′-biphenyl)-2-carbonitrile hydrochloride], testing at 1 µM gave an inhibition of 96%.

As for `Cc1ccccc1-c1cc(C(OCc2ccccc2F)c2cncn2C)ccc1C#N` (centres unmarked) [Example 138, 5-(((2-fluorobenzyl)oxy)(1-methyl-1H-imidazol-5-yl)methyl)-2′-methyl(1,1′-biphenyl)-2-carbonitrile hydrochloride], at 1 µM the inhibition was 92%.

For the compound `Cc1cc(C)cc(COC(c2ccc(C#N)c(-c3ccccc3C)c2)c2cncn2C)c1` (centres unmarked) [Example 140, 5-(((3,5-dimethylbenzyl)oxy)(1-methyl-1H-imidazol-5-yl)methyl)-2′-methyl(1,1′-biphenyl)-2-carbonitrile hydrochloride], 1 µM produced 94% inhibition.

Consider `Cc1ccccc1-c1cc(C(OCc2ccc(F)cc2C(F)(F)F)c2cncn2C)ccc1C#N` (centres unmarked) [Example 141, 5-(((4-fluoro-2-(trifluoromethyl)benzyl)oxy)(1-methyl-1H-imidazol-5-yl)methyl)-2′-methyl(1,1′-biphenyl)-2-carbonitrile hydrochloride], for which the inhibition at 1 µM worked out at 95%.

Turning to `Cc1cc(COC(c2ccc(C#N)c(-c3ccccc3C)c2)c2cncn2C)c(C#N)cc1C#N` (centres unmarked) [Example 144, 4-(((6-cyano-2′-methyl(1,1′-biphenyl)-3-yl)(1-methyl-1H-imidazol-5-yl)methoxy)methyl)-6-methylisophthalonitrile hydrochloride], at 1 µM the inhibition was 96%.

In the case of `Cc1ccccc1-c1cc(C(OCc2ccc(-c3ccccc3C#N)cc2)c2cncn2C)ccc1C#N` (centres unmarked) [Example 145, 5-(((2′-cyano(1,1′-biphenyl)-4-yl)methoxy)(1-methyl-1H-imidazol-5-yl)methyl)-2′-methyl(1,1′-biphenyl)-2-carbonitrile hydrochloride], the inhibition at 1 µM was determined as 97%.

`COC(=O)c1cccc(COC(c2ccc(C#N)c(-c3ccccc3C)c2)c2cncn2C)c1` (centres unmarked) [Example 146, methyl 3-(((6-cyano-2′-methyl(1,1′-biphenyl)-3-yl)(1-methyl-1H-imidazol-5-yl)methoxy)methyl)benzoate hydrochloride]: the inhibition at 1 µM amounted to 93%.

Regarding `Cc1ccccc1-c1cc(C(OCc2ccc(F)c(F)c2)c2cncn2C)ccc1C#N` (centres unmarked) [Example 147, 5-(((3,4-difluorobenzyl)oxy)(1-methyl-1H-imidazol-5-yl)methyl)-2′-methyl(1,1′-biphenyl)-2-carbonitrile hydrochloride], testing at 1 µM gave an inhibition of 96%.

`COc1cc(COC(c2ccc(C#N)c(-c3ccccc3C)c2)c2cncn2C)cc(OC)c1` (centres unmarked) [Example 150, 5-(((3,5-dimethoxybenzyl)oxy)(1-methyl-1H-imidazol-5-yl)methyl)-2′-methyl(1,1′-biphenyl)-2-carbonitrile hydrochloride] gave an inhibition at 1 µM of 93%.

`Cc1ccccc1-c1cc(C(OCc2cc3c(cc2Cl)OCO3)c2cncn2C)ccc1C#N` (centres unmarked) [Example 152, 5-(((6-chloro-1,3-benzodioxol-5-yl)methoxy)(1-methyl-1H-imidazol-5-yl)methyl)-2′-methyl(1,1′-biphenyl)-2-carbonitrile hydrochloride] gave an inhibition at 1 µM of 89%.

In the case of `Cc1ccccc1-c1cc(C(OCc2ccc(C(C)C)cc2)c2cncn2C)ccc1C#N` (centres unmarked) [Example 153, 5-(((4-isopropylbenzyl)oxy)(1-methyl-1H-imidazol-5-yl)methyl)-2′-methyl(1,1′-biphenyl)-2-carbonitrile hydrochloride], the inhibition at 1 µM was 92%.

As to `Cc1ccc(COC(c2ccc(C#N)c(-c3ccccc3C)c2)c2cncn2C)cc1C` (centres unmarked) [Example 154, 5-(((3,4-dimethylbenzyl)oxy)(1-methyl-1H-imidazol-5-yl)methyl)-2′-methyl(1,1′-biphenyl)-2-carbonitrile hydrochloride], the inhibition at 1 µM is 95%.

`Cc1ccccc1-c1cc(C(OCc2ccc(OCc3ccccc3)cc2)c2cncn2C)ccc1C#N` (centres unmarked) [Example 155, 5-(((4-(benzyloxy)benzyl)oxy)(1-methyl-1H-imidazol-5-yl)methyl)-2′-methyl(1,1′-biphenyl)-2-carbonitrile hydrochloride]: testing at 1 µM gave an inhibition of 92%.

Compound `Cc1ccccc1-c1cc(C(OCc2cc(F)cc3c2OCOC3)c2cncn2C)ccc1C#N` (centres unmarked) [Example 156, 5-(((6-fluoro-4H-1,3-benzodioxin-8-yl)methoxy)(1-methyl-1H-imidazol-5-yl)methyl)-2′-methyl(1,1′-biphenyl)-2-carbonitrile hydrochloride] registered an inhibition at 1 µM of 92%.

On to `Cc1ccccc1-c1cc(C(OCc2ccc(Cl)cc2Cl)c2cncn2C)ccc1C#N` (centres unmarked) [Example 157, 5-(((2,4-dichlorobenzyl)oxy)(1-methyl-1H-imidazol-5-yl)methyl)-2′-methyl(1,1′-biphenyl)-2-carbonitrile hydrochloride], for which testing at 1 µM gave an inhibition of 97%.

In turn, `Cc1ccccc1-c1cc(C(OCc2noc(C(C)(C)C)n2)c2cncn2C)ccc1C#N` (centres unmarked) [Example 159, 5-(((5-(tert-butyl)-1,2,4-oxadiazol-3-yl)methoxy)(1-methyl-1H-imidazol-5-yl)methyl)-2′-methyl(1,1′-biphenyl)-2-carbonitrile hydrochloride] displayed an inhibition at 1 µM of 91%.

Staying with this assay, now noted: compound at 10^−6 M; bovine FTase, 37° C., 30 minutes; hydrochloride.
Turning to `Cc1cc(C)cc(COC(c2ccc(C#N)c(-c3ccccc3C)c2)c2cncn2C)c1.Cl` (centres unmarked) [Example 158, 5-(((3,5-dimethylbenzyl)oxy)(1-methyl-1H-imidazol-5-yl)methyl)-2′-methyl(1,1′-biphenyl)-2-carbonitrile hydrochloride], the “% Inhibition at 10^−6M” value came to 95%.

Source of the values: patent publication US20020019527A1 (priority 2000, published 2002).
